Data: paper PMC5441580, “GPR40 partial agonist MK-2305 lower fasting glucose in the Goto Kakizaki rat via suppression of endogenous glucose production” (PLoS ONE, 2017)
Several values for one entry are separate records, joined by “and”; a condition that tells them apart may be missing. Equal values may be shown once.

Key:
[1] = system: perfused db/db mouse livers; assay: isolated perfused liver study, 13C NMR, [2-13C] pyruvate
Description: To evaluate whether GPR40 partial agonist treatment produced a direct effect on hepatic glucose production, we performed isolated perfused liver studies with ^13C NMR spectroscopy in which GPR40 agonists were dosed directly to the liver ex vivo. Mouse livers were chosen instead of rat livers due to size restrictions of the perfused liver apparatus. […] A detailed description of the perfused liver technique can be found elsewhere. Briefly, db/db mice were anesthetized (Nembutal IP, 100 mg/kg), the portal vein was cannulated and tied off, and the liver was excised and perfused with a pre-oxygenated Krebs-bicarbonate buffered solution. The liver was then placed into a 20 mm NMR tube and the gluconeogenic substrate [2-^13C] pyruvate (10 mM) was added to the perfusate plus either MK-2305 (10 μM) or vehicle (0.1% DMSO). […] These NMR signals were then converted to absolute units (μmoles) by comparison to ^13C NMR spectra of standard solutions acquired under identical conditions. Additional correction factors were included for ^13C-glycogen and ^13C-glucose to account for the fact that position 2 in pyruvate can end up at position 1, 2, 5, or 6 in glucose/glycogen due to the fumarase and triose phosphate isomerase reactions. The slope of each signal versus time was then used to calculate the following fluxes: glucose production, glycogen synthesis, and lactate production.

[2] = system: GK rats; assay: endogenous glucose production in vivo, 2H/13C dual tracer, acute treatment, GK rats; design: species or system rat
Description: To evaluate whether MK-2305 treatment produced an effect on EGP in vivo, a ^2H/^13C dual tracer approach was used to calculate EGP and its contributing sources. On the day of the study, GK rats were bled via tail snip, and blood glucose was measured via glucometer. Ambient glucose was measured at 8 A.M. and used to sort animals into treatment groups (n = 8 per group). 0.9% NaCl salinated D2O (Sigma-Aldrich, St. Louis, MO) was administered to all animals via IP injection at dose volume of 20 ml/kg. Animals were then placed in clean cages and food was removed. After a 5 hour fast, blood glucose was measured and animals were dosed PO with MK-2305 at 10 mg/kg (5 ml/kg) or vehicle (0.5% methylcellulose) immediately followed by 50 mg/kg [U-^13C] glucose (Sigma-Aldrich) IP at 5 ml/kg. Blood was collected via tail snip at time points from 60–150 min post treatment to measure blood glucose as well as endogenous (^12C-glucose) and exogenous (^13C-glucose) via GCMS. Following the last tail blood collection, rats were anesthetized with isoflurane and cardiac blood was collected into K2EDTA tubes (Becton, Dickinson and Co., Franklin Lakes, NJ).
The serially collected blood samples were analyzed for ^13C-glucose enrichment using GC-MS analysis. The % ^13C glucose enrichments were then combined with the total glucose readings to calculate the concentration of ^13C-glucose, and these values were modeled with a two-compartment model of whole body glucose metabolism to calculate the average EGP for the period from 0–150 minutes.
Terminal blood samples were analyzed for relative ^2H enrichment in plasma glucose using the monoacetone glucose method. Briefly, samples were extracted with 70% perchloric acid and centrifuged at 25,000 rcf for 10 min at 4°C. The supernatant was collected and the pH was adjusted to 6–8 using KOH. The samples were then lyophilized overnight. To convert plasma glucose to monoacetone glucose (MAG), acetone and concentrated sulfuric acid were added to the lyophilized samples and stirred for 4 hours at room temperature. Water was then added and the pH adjusted to 2.0 with 3M Na2CO3. Samples were stirred moderately for 18 hours at room temperature, the pH was adjusted to 7 with 3M Na2CO3, and the samples were completely dried by speed vacuum concentration. The resulting MAG samples were then extracted in hot ethyl acetate, dried overnight under a stream of N2 gas, purified using Discovery DSC-18 SPE columns (6 ml, 1 g bed weight), and freeze dried. Purified MAG samples were solubilized in 180 μl 90% acetonitrile for ^2H NMR analysis which was performed using the lock channel of a 950 MHz Bruker NMR spectrometer (David H Murdock Research Institute, Kannapolis, NC). Acquisition parameters were as follows: 90° pulse, D1 = 1 s, ^1H broadband decoupling, NS = 3600 averages, acquisition time ~ 1 hr. The ^2H NMR spectra of the MAG samples were then analyzed using in–house developed Matlab (The Mathworks Inc, Natick, MA) to model the NMR peaks with a Lorentzian line shape, and the results were used to calculate integrals for each of the seven NMR resonances in the MAG spectrum. Peaks 2, 5, and 6s were then used to calculate the relative sources of EGP (i.e. gluconeogenesis from TCA cycle substrates, gluconeogenesis from triose phosphates, and glycogenolysis) and these values were combined with the total EGP measurement to calculate absolute fluxes of glucose production.

[3] = biological target: T1, rat GPR40 (FFAR1) (Rattus norvegicus, UniProt Q8K3T4); assay: IP1 functional assay, CHO cells stably expressing rat GPR40; assay type: cell-based; conditions: for Receptor Activation (%): representative curve Fig 1B
T1 construct: expressed in transfected cells
T1 sequence (Q8K3T4 whole entry): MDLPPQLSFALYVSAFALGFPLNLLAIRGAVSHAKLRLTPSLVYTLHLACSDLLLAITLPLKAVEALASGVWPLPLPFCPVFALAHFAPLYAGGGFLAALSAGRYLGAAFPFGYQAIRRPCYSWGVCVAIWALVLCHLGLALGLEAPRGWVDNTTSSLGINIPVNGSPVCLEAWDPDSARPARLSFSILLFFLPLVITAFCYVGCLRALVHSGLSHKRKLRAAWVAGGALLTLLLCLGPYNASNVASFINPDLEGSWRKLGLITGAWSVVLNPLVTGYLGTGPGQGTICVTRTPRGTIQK
Description: CHO Jump-IN cells stably expressing rat GPR40 or HEK293 Jump-IN cells stably expressing rat GPR120 were cultured in DMEM media supplemented with 10% dialyzed FBS, non-essential amino acids, penicillin/streptomycin, 10 μg/ml Blasticidin S HCL and 200 or 100 μg/ml Hygromycin B, respectively (Life Technologies). Cell stocks were maintained and grown in a sub-confluent state using standard cell culture procedures. The day before the experiment, the cells were harvested with non-enzymatic cell dissociation buffer and re-suspended in DMEM supplemented as described above at 0.15 million cells per ml. […] The seeded plates were incubated overnight at 37°C in a humidified environment.
On the day of the experiment, the growth media was removed from the assay plate by centrifugation using a BlueCatBio BlueWasher, protocol #21 “Light Dry” and 10 μl of IP1 stimulation buffer (prepared according to the Cisbio IP-one Tb HTRF kit) is added to each well. Test compounds were dissolved and serially diluted in DMSO as 200X the final assay concentration and 50 nl of the compound dilution was acoustically added to each well of the assay plates. The plates were then incubated for 60 minutes at room temperature and 10 μl of detection buffer (prepared according to the IP-one Tb HTRF kit) is added to each well of the assay plate. The plates were then incubated for one additional hour at room temperature. […] For each assay, a standard curve plate in which IP1 is titrated is also included. […] The % activation is then plotted versus the concentration of test compound and the dose response curve fitted to a standard 4-paramater non-linear regression model using a custom in-house developed software package. Maximal % activation and EC50 are then determined for each test compound.

[4] = perfused db/db mouse livers, 10 mg/kg, title: 10 M, individual livers
[5] = acute treatment, 10 mg/kg, individual animals

selectivity for activation of rat GPR40 vs. GPR120, GPR41, GPR43, PPARα, PPARδ, PPARγ [3]: highly selective | Receptor Activation (%) ([3]; Concentration 2.00E-06 M): 154% | Receptor Activation (%) ([3]; Concentration 2.00E-07 M): 169% | Receptor Activation (%) ([3]; Concentration 2.00E-08 M): 136% | Receptor Activation (%) ([3]; Concentration 2.00E-09 M): 35% | Receptor Activation (%) ([3]; Concentration 2.00E-10 M): 5.69% | Receptor Activation (%) ([3]; Concentration 6.00E-07 M): 163% | Receptor Activation (%) ([3]; Concentration 6.00E-08 M): 133% | Receptor Activation (%) ([3]; Concentration 6.00E-09 M): 74% | Receptor Activation (%) ([3]; Concentration 6.00E-10 M): 16% | Receptor Activation (%) ([3]; Concentration 6.00E-11 M): -6% | EC50 ([3]; IP1 accumulation, CHO cells expressing rat GPR40, mean ± SD, N = 29): 6 ± 2.9 nM | % Activation ([3]; maximal activation, percentage of the control response of an in-house partial agonist, mean ± SD): 166% and 166 ± 31^1%
SMILES: O=C1NC(=O)C(C2CCOc3cc(Oc4ccc(C(F)(F)F)cc4Cl)ccc32)S1 (centres unmarked) [MK-2305]
effect on conversion of [2-13C] pyruvate to 13C-glucose, 13C-glycogen, or 13C-lactate ([1]; 10 μM, perfused db/db mouse liver): no effects | Flux, conversion of [2-13C] pyruvate to 13C-glycogen [1, 4]: 0.1121 umoles pyr /g liver*min and 0.1693 umoles pyr /g liver*min and 0.0485 umoles pyr /g liver*min and 0.07554 umoles pyr /g liver*min | Flux, conversion of [2-13C] pyruvate to 13C-lactate [1, 4]: 1.604 umoles pyr /g liver*min and 1.499 umoles pyr /g liver*min and 1.317 umoles pyr /g liver*min and 0.5832 umoles pyr /g liver*min | Flux, conversion of [2-13C] pyruvate to 13C-glucose ([1]; perfused db/db mouse livers, MK-2305 10 μM in perfusate, individual livers): 0.9558 umoles pyr /g liver*min and 1.314 umoles pyr /g liver*min and 1.287 umoles pyr /g liver*min and 0.8408 umoles pyr /g liver*min | Glucose Production, GNG Glycerol [2, 5]: 3.608 µmol/kg/min and 6.69 µmol/kg/min and 9.73 µmol/kg/min and 6.819 µmol/kg/min and 7.18 µmol/kg/min and 7.314 µmol/kg/min | Glucose Production, GNG TCA [2, 5]: 22.6827 µmol/kg/min and 24.6101 µmol/kg/min and 42.0826 µmol/kg/min and 20.0832 µmol/kg/min and 26.1824 µmol/kg/min and 20.2011 µmol/kg/min | Glucose Production, GNG Total [2, 5]: 26.2902 µmol/kg/min and 31.3005 µmol/kg/min and 51.8129 µmol/kg/min and 26.902 µmol/kg/min and 33.3626 µmol/kg/min and 27.5151 µmol/kg/min | Glucose Production, Glycogenolysis [2, 5]: 12.8051 µmol/kg/min and 15.6084 µmol/kg/min and 16.1238 µmol/kg/min and 13.6282 µmol/kg/min and 9.977 µmol/kg/min and 16.0296 µmol/kg/min | effect on EGP derived from glycogenolysis ([2]; acute, 10 mg/kg PO): did not acutely affect | EGP from gluconeogenic substrates entering as triose phosphates ([2]; acute, 10 mg/kg PO, mean ± SEM, vehicle 8.82 ± 0.81, p < 0.05): 6.90 ± 0.80 µmol/kg/min | EGP from gluconeogenic substrates entering at the TCA cycle ([2]; acute, 10 mg/kg PO, mean ± SEM, vehicle 43.2 ± 4.17, p < 0.01): 26.0 ± 3.36 µmol/kg/min | total EGP ([2]; acute, 10 mg/kg PO, mean ± SEM, vehicle 52.0 ± 4.82, p < 0.05): 32.9 ± 3.95 µmol/kg/min | % Activation ([3]; individual experiments (raw data of Table 1)): 118% and 159% and 181% and 151% and 130% and 184% and 179% and 195% and 135% and 146% and 161% and 144% and 191% and 182% and 204% and 258% and 168% and 171% and 187% and 162% and 170% and 165% and 199% and 155% and 137% and 160% and 91%
